Biological target: human ERK-2 (Mitogen Activated Kinase 1) (Homo sapiens (Human), UniProt P28482)
Experiment: ERK-2 Enzymatic Assay
Assay type: biochemical
Settings: 5 nM ERK-2 enzyme, 25 μM ATP, Omnia peptide S/T17; single assay or mean of multiple assays; read-out: IC50 (ERK-2 Enzymatic Assay), TABLE I
Procedure: Compounds were tested in an enzymatic assay using human ERK-2 (Mitogen Activated Kinase 1), recombinantly expressed as an N-terminal 6-His fusion protein in E. coli and corresponding to aa 8-360. The substrate used was the fluorescent Omnia peptide S/T17 (Invitrogen of Carlsbad, Calif.; Cat. KNZ1171C). Test compounds were diluted in DMSO in 3-fold serial dilutions at 100× final concentrations. […] The assay was run at ambient temperature in a white 384-well polypropylene plate (Nunc, Inc of Naperville, Ill.; Cat. 267462) collecting data every 50 seconds for approximately 30 minutes on an Envision plate reader (PerkinElmer, Inc. of Waltham, Mass.); Excitation 340 nm/Emission 495 nm. The data collected from each well was fit to a straight line and the resulting rates were used to calculate percent of control. Percent of control was plotted against compound concentration and IC50 values were determined using a four-parameter fit. Representative data is in TABLE I and TABLE II. The reported IC50 may be from a single assay or the mean of multiple assays.

Chain of human ERK-2 (Mitogen Activated Kinase 1) (P28482 8-360): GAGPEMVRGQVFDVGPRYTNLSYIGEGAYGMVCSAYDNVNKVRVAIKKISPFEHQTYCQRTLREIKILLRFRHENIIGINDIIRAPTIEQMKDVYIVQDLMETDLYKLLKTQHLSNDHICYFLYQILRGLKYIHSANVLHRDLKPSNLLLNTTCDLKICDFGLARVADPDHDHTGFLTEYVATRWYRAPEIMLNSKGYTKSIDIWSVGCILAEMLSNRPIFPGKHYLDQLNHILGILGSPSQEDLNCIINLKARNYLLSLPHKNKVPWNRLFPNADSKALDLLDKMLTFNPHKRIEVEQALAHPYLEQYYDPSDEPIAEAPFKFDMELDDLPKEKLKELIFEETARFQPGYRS

SMILES	IC50
CC(C)Nc1ncc2ccc(C(=O)N[C@H](c3ccc(C(F)(F)F)c(F)c3)[C@@H]3CCCN3)cc2n1 (stereo in doubt) [I-5, 2-isopropylamino-quinazoline-7-carboxylic acid [(S)-(3-fluoro-4-trifluoromethyl-phenyl)-(R)-pyrrolidin-2-yl-methyl]-amide]	2.3 nM
O=C(N[C@H](c1ccc(C(F)(F)F)c(F)c1)[C@@H]1CCCN1)c1ccc2cnc(NC3CCOCC3)nc2c1 (stereo in doubt) [I-7, 2-(tetrahydropyran-4-ylamino)-quinazoline-7-carboxylic acid [(S)-(3-fluoro-4-trifluoromethyl-phenyl)-(R)-pyrrolidin-2-yl-methyl]-amide]	1.8 nM
C[C@@H](CO)Nc1ncc2ccc(C(=O)NC(c3ccc(Cl)c(F)c3)c3ccn(C)n3)cc2n1 (stereo partly drawn) [I-6, N-((4-chloro-3-fluorophenyl)(1-methyl-1H-pyrazol-3-yl)methyl)-2-((S)-1-hydroxypropan-2-ylamino)quinazoline-7-carboxamide]	5 nM

Now from value to compound:

IC50	SMILES
2.3 nM	O=C(N[C@H](c1ccc(Cl)c(F)c1)[C@@H]1CCCN1)c1ccc2cnc(NC3CCOCC3)nc2c1 (stereo in doubt) [I-23, 2-(tetrahydropyran-4-ylamino)-quinazoline-7-carboxylic acid [(S)-(4-chloro-3-fluoro-phenyl)-(R)-pyrrolidin-2-yl-methyl]-amide]
8.2 nM	COc1ccc([C@@H](NC(=O)c2ccc3cnc(NC4CCOCC4)nc3c2)[C@@H]2CCCN2)cc1F (stereo in doubt) [I-24, 2-(tetrahydropyran-4-ylamino)-quinazoline-7-carboxylic acid [(S)-(3-fluoro-4-methoxy-phenyl)-(R)-pyrrolidin-2-yl-methyl]-amide]
9 nM	COc1ccc([C@@H](NC(=O)c2cc(F)c3cnc(NC4CCOCC4)nc3c2)[C@@H]2CCCN2)cc1F (stereo in doubt) [I-25, 5-fluoro-2-(tetrahydropyran-4-ylamino)-quinazoline-7-carboxylic acid [(S)-(3-fluoro-4-methoxy-phenyl)-(R)-pyrrolidin-2-yl-methyl]-amide]
2.4 nM	CCn1ccc([C@@H](NC(=O)c2ccc3cnc(NC4CCOCC4)nc3c2)c2ccc(Cl)c(F)c2)n1 [I-19, 2-(tetrahydropyran-4-ylamino)-quinazoline-7-carboxylic acid [(S)-(4-chloro-3-fluoro-phenyl)-(1-ethyl-1H-pyrazol-3-yl)-methyl]-amide]

Same assay, conditions: 5 nM ERK-2 enzyme, 25 μM ATP, Omnia peptide S/T17; single assay or mean of multiple assays; read-out: IC50 (ERK-2 Enzymatic Assay), TABLE II

SMILES	IC50
COc1ccc([C@H](NC(=O)c2cc(F)c3cnc(NC(C)C(F)(F)F)nc3c2)c2cnn(C)c2)cc1F (single isomer, unassigned) [II-1]	6.2 nM
COc1ccc([C@H](NC(=O)c2cc(F)c3cnc(NC(C)C(F)(F)F)nc3c2)c2cnn(C)c2)cc1F (single isomer, unassigned) [II-2]	13.6 nM

Reference: patent publication US9187462B2, “Substituted quinazolines as serine/threonine kinase inhibitors” (Array BioPharma Inc., priority 2011, dated 2015)
